Results reported in patent publication US11873295B2, “Allosteric chromenone inhibitors of phosphoinositide 3-kinase (PI3K) for the treatment of disease” (Petra Pharma Corporation, priority 2021, dated 2024).

Legend:
[1] = biological target: T1, human full length PIK3KA Wild-type (p110α/p85α complex) (Homo sapiens, UniProt P42336); assay: PI3K-alpha kinase (PIK3CA) biochemical activity, wild-type, ADP-Glo; conditions: PI3K-α (PIK3CA) biochemical
T1 construct: Recombinant, catalytically active human full length PIK3KA Wild-type and H1047R mutant were purchased as 1:1 complex; 6xHis (N); purchased EMD Millipore Sigma 14-602M
Source text: (§1) PI3K-Alpha Kinase (PIK3CA) Activity, Wild-Type and H1047R Mutant and Determining IC50 Values for Inhibitors
(§2) Recombinant, catalytically active human full length PIK3KA Wild-type and H1047R mutant were purchased as 1:1 complex of N-terminal 6× his tagged p110α (catalytic) and untagged p85α (regulatory subunit) from EMD Millipore Sigma (cat. no. 14-602M and 14-792M, respectively). PIP2diC8 (Avanti Polar Lipids Inc., cat. no. 850185) or Soy PI (Avanti Polar Lipids Inc., cat. No. 840044P) was used as lipid substrate. PIP2diC8 or PI lyophilized powder was dissolved in milliQ water to a concentration of 1 mM just before use. 10 mM stock compounds in DMSO were serially diluted 1:3 to generate a 10-point curve and plated using an acoustic liquid handler system (Echo 550 series instrument, Labcyte). A 10× intermediate compound plate (200 uM starting compound concentration and 10% DMSO) was prepared before starting the reaction. A typical reaction mixture (50 uL) comprised 40 mM HEPES buffer, pH 7.4, 25 mM MgCl2, 0.01% v/v triton-X-100, 1% v/v DMSO, 20 mM NaCl, 1-5 nM WT or H1047R PI3K protein, 20 uM ATP, and 50 uM PIP2diC8 or Soy PI. 1% DMSO buffer alone without test compound was employed as MAX control (full activity in the absence of any inhibitor), and no enzyme control was used to determine the level of background Adenosine 5′-diphosphate (ADP) (MIN control). First, Wild-type (WT) and H1047R mutant protein in kinase buffer with all components except ATP were incubated with or without compound at 27° C. for 1 h. After the pre-incubation, the reaction was initiated by the addition of 20 uL of 50 uM ATP (20 uM final concentration). The reaction was allowed to proceed until about 10% conversion of ATP (2 uM ADP) at 27° C. After that time, 5 uL of reaction was mixed with 5 uL of ADP-Kinase Glo Reagent (ADP-Glo Kinase assay kit, Promega cat. no. V9102) supplemented with MgCl2 10 mM to stop the reaction and deplete the remaining ATP for 40 min at room temperature. Then, 10 uL of Kinase Detection Reagent (ADP-Glo Kinase assay kit, Promega cat. no. V9102) was added to simultaneously convert ADP to ATP and allow the newly synthesized ATP to be measured using a luciferase/luciferin reaction. After 30 min at room temperature the light generated was measured using a luminometer (EnVision plate reader, Perkin Elmer). Process data through Genedata-Screener tool. Relative IC50 values are determined using luminescence units by calculating percent inhibition with respect to on-plate “MIN” and “MAX” controls. Data was analyzed using a 4-parameter nonlinear logistic equation (four-parameter logistic concentration-response curve): Y=bot+[(top−bot)/1+(x/IC50)slope] where Y=% inhibition, X=concentration yielding y % inhibition, Bottom=minimum value of y attained by curve, Top=maximum value of y attained by curve and Slope=steepness of curve at IC50. % Inh=[(median Max−x/median Max−median Min)]·100 IC50: concentration of compound that reduces a given response (ligand binding, enzyme response) by 50%. IC50 relative: concentration giving half the compound's maximum response.
(§3) For IC50 values shown in Table A, “A” means IC50<0.5 μM; “B” means IC50 ranging between 0.5 μM and 1.0 μM; “C” means IC50 ranging between 1 μM and 5 μM; “D” means IC50 ranging between 5 μM and 10 μM; “E” means IC50>10 μM.

[2] = biological target: T2, human full length PIK3KA H1047R mutant (p110α/p85α complex) (Homo sapiens, UniProt P42336, H1047R); assay: PI3K-alpha kinase (PIK3CA) biochemical activity, H1047R mutant, ADP-Glo; conditions: PI3K-α (PIK3CA) biochemical, H1047R mutant
T2 construct: Recombinant, catalytically active human full length PIK3KA Wild-type and H1047R mutant were purchased as 1:1 complex; 6xHis (N); purchased EMD Millipore Sigma 14-792M
Source text: as §1, §2, §3

[3] = PIP2diC8 lipid substrate (footnote 1)

T2 sequence (P42336 whole entry H1047R): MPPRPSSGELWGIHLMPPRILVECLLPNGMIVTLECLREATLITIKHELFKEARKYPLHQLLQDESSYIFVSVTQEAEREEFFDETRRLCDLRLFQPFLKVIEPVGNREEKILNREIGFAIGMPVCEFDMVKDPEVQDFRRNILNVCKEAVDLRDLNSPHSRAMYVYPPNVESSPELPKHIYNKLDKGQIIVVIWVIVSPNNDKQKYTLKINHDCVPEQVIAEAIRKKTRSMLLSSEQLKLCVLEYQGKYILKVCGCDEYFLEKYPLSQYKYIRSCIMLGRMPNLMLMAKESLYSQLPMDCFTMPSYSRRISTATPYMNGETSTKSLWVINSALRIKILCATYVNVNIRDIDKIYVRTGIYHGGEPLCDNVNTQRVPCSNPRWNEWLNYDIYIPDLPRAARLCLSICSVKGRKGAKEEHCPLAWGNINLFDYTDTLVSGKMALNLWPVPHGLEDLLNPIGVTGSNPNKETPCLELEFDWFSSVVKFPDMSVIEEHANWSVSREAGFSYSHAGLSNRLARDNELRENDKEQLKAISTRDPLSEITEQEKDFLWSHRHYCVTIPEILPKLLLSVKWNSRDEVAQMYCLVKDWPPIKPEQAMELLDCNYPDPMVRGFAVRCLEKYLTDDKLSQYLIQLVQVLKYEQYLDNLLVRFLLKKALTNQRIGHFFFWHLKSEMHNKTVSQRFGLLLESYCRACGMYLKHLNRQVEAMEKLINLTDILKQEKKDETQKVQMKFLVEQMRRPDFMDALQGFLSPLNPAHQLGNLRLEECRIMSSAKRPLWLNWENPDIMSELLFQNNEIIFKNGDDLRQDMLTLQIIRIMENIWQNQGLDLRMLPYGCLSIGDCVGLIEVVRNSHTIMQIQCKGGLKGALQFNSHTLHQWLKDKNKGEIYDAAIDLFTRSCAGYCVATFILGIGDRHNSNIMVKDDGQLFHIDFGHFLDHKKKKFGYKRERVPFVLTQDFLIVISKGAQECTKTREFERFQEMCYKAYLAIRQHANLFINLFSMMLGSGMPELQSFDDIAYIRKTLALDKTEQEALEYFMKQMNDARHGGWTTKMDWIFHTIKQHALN
T2 sequence (P27986 whole entry partner): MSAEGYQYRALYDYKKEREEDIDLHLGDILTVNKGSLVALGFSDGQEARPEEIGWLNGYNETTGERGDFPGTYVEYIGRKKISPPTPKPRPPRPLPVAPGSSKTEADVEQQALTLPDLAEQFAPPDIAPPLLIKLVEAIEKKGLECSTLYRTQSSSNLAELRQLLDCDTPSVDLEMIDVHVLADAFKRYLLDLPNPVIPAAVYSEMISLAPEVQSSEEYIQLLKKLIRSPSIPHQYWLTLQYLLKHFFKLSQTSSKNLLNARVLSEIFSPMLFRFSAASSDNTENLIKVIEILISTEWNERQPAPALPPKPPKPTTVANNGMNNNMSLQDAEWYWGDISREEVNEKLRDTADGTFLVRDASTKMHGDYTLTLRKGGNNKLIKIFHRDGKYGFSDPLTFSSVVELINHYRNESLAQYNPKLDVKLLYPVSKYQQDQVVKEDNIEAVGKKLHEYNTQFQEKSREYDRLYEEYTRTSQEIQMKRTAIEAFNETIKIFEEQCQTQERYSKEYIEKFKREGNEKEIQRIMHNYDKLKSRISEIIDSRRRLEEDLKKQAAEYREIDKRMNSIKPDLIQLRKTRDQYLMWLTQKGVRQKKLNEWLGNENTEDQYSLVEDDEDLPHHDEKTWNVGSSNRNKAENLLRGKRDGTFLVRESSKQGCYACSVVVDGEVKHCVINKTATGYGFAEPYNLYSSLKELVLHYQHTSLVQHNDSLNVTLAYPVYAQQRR

Compound | IC50 ([1]; Soy PI lipid substrate) [nM] | IC50 ([2]; Soy PI lipid substrate) [nM] | IC50 [1, 3] [nM] | IC50 [2, 3] [nM]
Cc1cc(C(C)Nc2ccccc2C(=O)O)c2oc(-c3ccc(S(C)(=O)=O)cc3)cc(=O)c2c1 (single isomer, unassigned; isomer 1) [Example 47, 2-[1-[6-Methyl-2-(4-methylsulfonylphenyl)-4-oxo-chromen-8-yl]ethylamino]benzoic acid, Isomer 1] | > 10000 | > 10000 |  | 
Cc1cc(C(C)Nc2ccccc2C(=O)O)c2oc(-c3ccc(C(=O)N(C)C)cc3)cc(=O)c2c1 (single isomer, unassigned; isomer 1) [Example 49, 2-[1-[2-[4-(Dimethylcarbamoyl)-phenyl]-6-methyl-4-oxo-chromen-8-yl]ethylamino]benzoic acid, Isomer 1] | 5000 to 10000 | < 500 |  | 
Cc1cc(C(C)Nc2ccccc2C(=O)O)c2oc(-c3ccc(N4CCCC4)cc3)cc(=O)c2c1 (single isomer, unassigned; isomer 1) [Example 54, 2-[1-[6-Methyl-4-oxo-2-(4-pyrrolidin-1-ylphenyl)chromen-8-yl]ethylamino]benzoic acid, Isomer 1] | > 10000 | 500 to 1000 |  | 
Cc1cc(C(C)Nc2ccccc2C(=O)O)c2oc(-c3ccccc3)c(C#N)c(=O)c2c1 (single isomer, unassigned; isomer 1) [Example 61, 2-[1-(3-Cyano-6-methyl-4-oxo-2-phenyl-chromen-8-yl)ethylamino]benzoic acid, Isomer 1] | > 10000 | > 10000 |  | 
CC(Nc1ccccc1C(=O)O)c1cc(C(F)(F)F)cc2c(=O)cc(-c3ccccc3)oc12 (single isomer, unassigned; isomer 1) [Example 86, 2-[1-[4-Oxo-2-phenyl-6-(trifluoromethyl)-chromen-8-yl]ethylamino]benzoic acid, Isomer 1] | 5000 to 10000 | > 10000 |  | 
Cc1cc(C(C)Nc2cccc(F)c2C(=O)O)c2oc(-c3ccccc3F)c(C)c(=O)c2c1 (single isomer, unassigned; isomer 1) [Example 103, 2-Fluoro-6-[1-[2-(2-fluorophenyl)-3,6-dimethyl-4-oxo-chromen-8-yl]ethylamino]benzoic acid, Isomer 1] | < 500 | < 500 |  | 
Cc1cc(C(C)Nc2cccc(F)c2C(=O)O)c2oc(-c3ccccc3F)cc(=O)c2c1 (single isomer, unassigned; isomer 1) [Example 107, 2-Fluoro-6-[1-[2-(2-fluorophenyl)-6-methyl-4-oxo-chromen-8-yl]ethylamino]benzoic acid, Isomer 1] | 1000 to 5000 | < 500 |  | 
Cc1cc(C(C)Nc2ccccc2C(=O)O)c2oc(-c3cccc(C(C)(C)C#N)c3)cc(=O)c2c1 (single isomer, unassigned; isomer 2) [Example 5, 2-[1-[2-[3-(1-Cyano-1-methyl-ethyl)phenyl]-6-methyl-4-oxo-chromen-8-yl]ethylamino]benzoic acid, Isomer 2] | > 10000 | < 500 |  | 
Cc1cc(C(C)Nc2ccccc2C(=O)O)c2oc(-c3ccc(S(C)(=O)=O)cc3)cc(=O)c2c1 (single isomer, unassigned; isomer 2) [Example 48, 2-[1-[6-Methyl-2-(4-methylsulfonylphenyl)-4-oxo-chromen-8-yl]ethylamino]benzoic acid, Isomer 2] | > 10000 | < 500 |  | 
Cc1cc(C(C)Nc2ccccc2C(=O)O)c2oc(-c3ccc(C4(C#N)CC4)cc3)cc(=O)c2c1 (single isomer, unassigned; isomer 2) [Example 53, 2-[1-[2-[4-(1-Cyanocyclopropyl)-phenyl]-6-methyl-4-oxo-chromen-8-yl]ethylamino]benzoic acid, Isomer 2] | 1000 to 5000 | < 500 |  | 
CC(Nc1ccccc1C(=O)O)c1cc(C(F)(F)F)cc2c(=O)cc(-c3ccccc3)oc12 (single isomer, unassigned; isomer 2) [Example 87, 2-[1-[4-Oxo-2-phenyl-6-(trifluoromethyl)-chromen-8-yl]ethylamino]benzoic acid, Isomer 2] | 5000 to 10000 | < 500 |  | 
Cc1cc(C(C)Nc2ccc(Cl)nc2C(=O)O)c2oc(-c3ccccc3)c(I)c(=O)c2c1 (single isomer, unassigned; isomer 2) [Example 154, 6-Chloro-3-[1-(3-iodo-6-methyl-4-oxo-2-phenyl-chromen-8-yl)ethylamino]pyridine-2-carboxylic acid, Isomer 2] | 500 to 1000 | < 500 |  | 
Cc1cc(C(C)Nc2ccc(Cl)nc2C(=O)O)c2oc(-c3ccccc3)c(I)c(=O)c2c1 (single isomer, unassigned; isomer i) [Example 153, 6-Chloro-3-[1-(3-iodo-6-methyl-4-oxo-2-phenyl-chromen-8-yl)ethylamino]pyridine-2-carboxylic acid, Isomer I] | 1000 to 5000 | 1000 to 5000 |  | 
Cc1cc([C@@H](C)Nc2ccc(Cl)nc2C(=O)O)c2oc(-c3ccccc3)cc(=O)c2c1 [Example 2, 6-Chloro-3-[[(1R)-1-(6-methyl-4-oxo-2-phenyl-chromen-8-yl)ethyl]amino]pyridine-2-carboxylic acid] | < 500 | < 500 |  | 
Cc1cc(C(C)Nc2ccccc2C(=O)O)c2oc(-c3cccc(C(C)(C)C#N)c3)cc(=O)c2c1 (stereo not shown) [Example 3, 2-[1-[2-[3-(1-Cyano-1-methyl-ethyl)phenyl]-6-methyl-4-oxo-chromen-8-yl]ethylamino]benzoic acid 2,2,2-trifluoroacetic acid] | 5000 to 10000 | < 500 |  | 
CC(Nc1ccccc1C(=O)O)c1c(F)c(F)cc2c(=O)cc(-c3ccccc3)oc12 (stereo not shown) [Example 6, 2-[1-(6,7-Difluoro-4-oxo-2-phenyl-chromen-8-yl)ethylamino]benzoic acid 2,2,2-trifluoroacetic acid] |  |  | 1000 to 5000 | < 500
Cc1cc(C(C)Nc2ccccc2C(=O)O)c2oc(-c3ccc(C4(C#N)CC4)cc3)cc(=O)c2c1 (stereo not shown) [Example 7, 2-[1-[2-[4-(1-Cyanocyclopropyl)-phenyl]-6-methyl-4-oxo-chromen-8-yl]ethylamino]benzoic acid] |  |  | 500 to 1000 | < 500
Cc1cc(C(C)Nc2ccccc2C(=O)O)c2oc(-c3ccc(C(=O)N(C)C)cc3)cc(=O)c2c1 (stereo not shown) [Example 8, 2-[1-[2-[4-(Dimethylcarbamoyl)-phenyl]-6-methyl-4-oxo-chromen-8-yl]ethylamino]benzoic acid 2,2,2-trifluoroacetic acid] | > 10000 | < 500 |  | 
Cc1cc(C(C)Nc2ccccc2C(=O)O)c2oc(-c3ccc(S(C)(=O)=O)cc3)cc(=O)c2c1 (stereo not shown) [Example 9, 2-[1-[6-Methyl-2-(4-methylsulfonylphenyl)-4-oxo-chromen-8-yl]ethylamino]benzoic acid 2,2,2-trifluoroacetic acid] | > 10000 | < 500 |  | 
Cc1cc(C(C)Nc2ccccc2C(=O)O)c2oc(-c3ccccc3)c(C#N)c(=O)c2c1 (stereo not shown) [Example 10, 2-[1-(3-Cyano-6-methyl-4-oxo-2-phenyl-chromen-8-yl)ethylamino]benzoic acid 2,2,2-trifluoroacetic acid] | 1000 to 5000 | < 500 |  | 
